From patent US6740637B1, “Chlorophyll and bacteriochlorophyll derivatives, their preparation and pharmaceutical compositions comprising them” (priority 1998, dated 2004)
“Also recorded” adds a separate entry of the source.

Tests used:
B. Subtilis = assay type: cell-based, Bacilus Subtilis
Protocol: (§1) 1. Preincubation: Bacteria or viruses were preincubated in the absence (untreated control) or presence of increasing concentration of photosensitizer for 1-2 h at room temperature or 37° C. in the dark.
(§2) 2. Illumination: One set of untreated control and one set of sensitizer treated samples were exposed to light for 5-10 min. An identical group was kept in the dark (dark control).
(§3) 3. Viability: samples of the controls and experimental groups were subjected for quantitation of survival and viability was calculated as per cent of untreated control.
(§4) The light source for illumination was a 250W halogen lamp. The light was focused on a glass support and filtered to eliminate light below 630 nm. The light intensity at the target level was 1500 μEinstein/cm^2. Illumination for Bchl-Ser against S. aureus was performed as described Example 17 herein.
(§5) Stocks of bacteria (S. aureus, B. subtilis, E. coli) were preserved on solid LB agar slants at 4° C. Two hours prior to the experiment, bacteria were transferred to liquid LB media and grown at 37° C. with continuous shaking. P. Acnes (ATCC-CR 6919) bacteria were grown on agar 1053 reinforced clostridial medium (Oxoid CM 149 ) and incubated at 37° C. […]
(§6) Aliquots (20 or 30 μl) of bacterial suspensions were plated on LB agar plates for 24 h at 37° C. […] Colonies were counted and per cent viability was calculated from untreated control. […]

C57Bl mice = assay: Toxicity of serine conjugates in mice in the absence of irradiation; assay type: in vivo, mouse; settings: injections of up to 40 mg/kg body weight, up to 14 days, no irradiation
Protocol: (d) Toxicity of the Chl and Bchl-serine conjugates Chla-L-Ser-OMe and Bchla-L-Ser-OMe in C57Bl mice under normal housing conditions in the absence of irradiation was estimated by injection of the compound dissolved in 10% ethanol/PBS. Control mice were injected with the vehicle only. […] This dose of drug was thus far the highest used and LD50 vs. EC50 of treatment (margins of therapeutic index) have yet to be determined.

M2R mouse melanoma cells = assay: Photodynamic toxicity to melanoma cell monolayer: morphology and Propidium Iodide staining; assay type: cell-based; settings: 4×10^−6M pigment, 10 min irradiation at 670 nm (light source A), examined 3 h later
Protocol: The photodynamic effect of Chlidea and Chla-L-Ser-OMe conjugate on melanoma cells in culture was tested as follows: M2R mouse melanoma cells as monolayers (to 100% confluence) were treated with the pigments Chla, Chlidea and Chla-L-Ser-OMe for 30 minutes. Subsequently the cultures were irradiated for 10 minutes from the top with a 5mW GaAs diode laser at 670 nm (light source A), a 150W Xenon lamp at 5000 μEinstein/cm^2 (light source B), or a 90W halogen lamp at 1500 μEinstein (light source C). The control groups included untreated cells, pigment- treated cells that were kept in the dark and irradiated untreated cells. Three hours after irradiation, the changes in cell morphology due to irradiation were examined by phase contrast microscopy.
Evaluation of the cytolytic activity of the various Chl and Bchl derivatives was carried out by assessing cell death in the photodynamically treated area of the monolayer by staining of the cells with, and monitoring the red fluorescence of, Propidium Iodide ([2,7-diamino-9-phenyl-10-(diethylamino-propyl)-phenathridinium iodide meth-iodide]) (PID) which is excluded from intact/live cells and selectively accumulates in nuclei of damaged cells. Examination of fluorescing nuclei in the stained culture was done by fluorescence microscopy (Yeh, 1981). […]

S. Aureus = assay type: cell-based, Staphylococcus Aureus
Protocol: as §1, §2, §3, §4, §5, §6

E.Coli = assay: PDT of bacteria with Chl-Ser, colony counting; assay type: cell-based, Escherichia Coli
Protocol: as §1, §2, §3, §4, §5, §6

[1] = system: Propionibacterium Acnes (under anaerobic conditions); assay type: cell-based
Protocol: as §1, §2, §3, §4
(§7) Stocks of bacteria (S. aureus, B. subtilis, E. coli) were preserved on solid LB agar slants at 4° C. Two hours prior to the experiment, bacteria were transferred to liquid LB media and grown at 37° C. with continuous shaking. P. Acnes (ATCC-CR 6919) bacteria were grown on agar 1053 reinforced clostridial medium (Oxoid CM 149 ) and incubated at 37° C. Culturing was performed in transparent culture jars made anaerobic with a gas generator envelop containing palladium catalyst, (Gas pack Plus Anaerobic system envelopes with Palladium catalyst, Beckton Dickenson Cockesyville Md. 21030 USA) (anaerobic culture) or in the open air (aerobic culture) The bacteria were incubated for 3-4 days before the experiments were carried out.
(§8) Aliquots (20 or 30 μl) of bacterial suspensions were plated on LB agar plates for 24 h at 37° C. ((S. aureus, B. subtilis, E. coli)) or on agar 1053 reinforced clostridial medium (P.acnes). Colonies were counted and per cent viability was calculated from untreated control.
(§9) P. Acnes bacteria at an optical density of A650 nm=0.014 were diluted in PBS to 1:10^−3 and divided into test tubes. Samples of 200 μl were either non treated or incubated with increasing concentration of Chl-Ser. Samples kept in dark were rapped with aluminum foil. All the tubes were placed in the anaerobic jar and incubated for 2 h at 37° C. The anaerobic chamber was placed on the glass support of the light source and samples were illuminated for 5 min. Test tubes with bacteria and sensitizers for the aerobic experiments were left in culture incubator for 2 h and exposed to light for 5 min in the open air. Samples of 20 μl from the anaerobic and aerobic experiments were taken out and spread onto agar plates and culture under anaerobic conditions. After 4 days of anaerobic incubation at 37° C. the colonies formed were counted and per cent viable cells calculated from control. Survival curves were determined based on 6-7 experiments. PDT experiments performed on S. Aureus with Bchl-Ser were conducted as described in Example 17 herein.

[2] = system: Propionibacterium Acnes (under aerobic conditions); assay type: cell-based
Protocol: as §1, §2, §3, §4, §7, §8, §9

## C=Cc1c(C)c2cc3nc(c4c5[n-]c(cc6nc(cc1[n-]2)C(C)=C6CC)c(C)c5C(=O)[C@@H]4C(=O)OC)[C@@H](CCC(=O)OC[C@H](N)C(=O)OC)[C@@H]3C.[Mg+2] [Chla-L-Ser-OMe, L-seryl Methyl Ester Chlorophyllidea]
B. Subtilis
  effect in dark: neither light alone nor Chl-Ser in dark showed any effect
C57Bl mice
  effect on behavior and well being of mice: no noticeable effect on the behavior and well being of the mice
M2R mouse melanoma cells
  cell damage: morphology and PID labeling after irradiation: cell damage was confined to the photodynamically treated area; also recorded: all the remaining damaged cells in area (A) became PID labeled
S. Aureus
  effect in dark: neither light alone nor Chl-Ser in dark showed any effect
E.Coli
  concentration up to which phototoxicity could be detected, beyond which toxic in the dark: ~5 µM
  sensitivity to Chl-Ser and light: significant resistance
[1]
  colony counts with sensitizer alone in dark: not different from those of untreated samples
[1]; anaerobic conditions, light 5 min
  LD50: 30 nM
[1]; concentration range of 0.1 to 1×10^−7M, anaerobic
  phototoxicity in the presence of light: dose dependent phototoxicity
[2]
  colony counts with sensitizer alone in dark: not different from those of untreated samples
[2]; aerobic conditions, light 5 min
  LD50: 10 nM
[2]; concentration range of 0.1 to 1×10^−7M, aerobic
  phototoxicity in the presence of light: dose dependent phototoxicity
